Here are results for one compound from patent publication US10844002B2, “Lipids and lipid compositions for the delivery of active agents” (priority 2014, dated 2020).

For data set [1], the system named is RSV F protein. The data set is classed as in vivo. Conditions: Table 4; BALB/c mice, intramuscular, 1 ng vA375 replicon in LNP, days 0 and 21. A general note: A replicon is a self-replicating genome or part of one, used to study replication in cells.
Data set [2] in a line: Encapsulation efficiency of RNA replicons (Quant-iT RiboGreen). The following applies: LNP 40% cationic lipid, 10% DSPC, 48% cholesterol, 2% PEG-DMG; RNA replicon. The data set is classed as physicochemical. How it is done:
Briefly, lipids were dissolved in ethanol (2m1), a RNA replicon was dissolved in buffer (2 ml, 100 mM sodium citrate, pH 6) and these were mixed with 2 ml of buffer followed by 1 hour of equilibration. The mixture was then dialized overnight against 1×PBS. The resulting product contained liposomes, with ˜70-95% encapsulation efficiency.
The percentage of encapsulated RNA and RNA concentration were determined by Quant-iT RiboGreen RNA reagent kit (Invitrogen), following manufacturer's instructions. The ribosomal RNA standard provided in the kit was used to generate a standard curve. LNPs were diluted 10× or 100× in 1× TE buffer (from kit) before addition of the dye. Separately, LNPs were diluted 10× or 100× in 1× TE buffer containing 0.5% Triton X before addition of the dye (to disrupt the LNPs and thus to assay total RNA). Thereafter an equal amount of dye was added to each solution and then ˜180 μL of each solution after dye addition was loaded in duplicate into a 96 well tissue culture plate. The fluorescence (Ex 485 nm, Em 528 nm) was read on a microplate reader. All LNP formulations were dosed in vivo based on the encapsulated amount of RNA.

Data set [3] concerns H1N1 influenza A strain, Ca107. Description: Immunogenicity in ferret models (Influenza): microneutralization. The data set is classed as in vivo, ferrets. The following applies: IM. How it is done:
For immunization in ferrets, a lipid working solution was freshly prepared by dissolving 22.5 mg of Example 1, 5.9 mg of DSPC, 13.9 mg of Cholesterol and 4.0 mg of PEG2000-conjugated DMPE (cat #880150P, Avanti Polar Lipids, Inc.) in 10 ml ethanol. A 10 mL working solution of RNA was also prepared at a concentration of 0.125 mg/ml in 100 mM citrate buffer (pH 6). The working lipid and RNA solutions were heated at 37° C. for 5 min before being loaded into two 10 cc luer-lok syringes. […] The outlet from the T mixer was also FEP tubing separately, 10 mL of citrate buffer (pH 6) was loaded in a third 10 cc syringe which was connected to a separate piece of tubing. All three syringes were loaded on a syringe pump and driven at 1.0 ml/min. The tubing outlets were positioned to collect the mixtures in a 20 mL glass vial which was gently stirred using a stirring bar. All glass vials were baked at 250° C. for 12 hours prior to experiment to completely inactivate any RNase contaminant. At the end of mixing, the stir bar was taken out and the ethanol/aqueous solution was allowed to equilibrate to room temperature for 1 hour. After incubation, the ethanol/aqueous solution was loaded into a syringe, and mixed with equal volume of 100 mM citrate buffer (pH 6) using the aforementioned Tee-junction process. Next, LNPs were concentrated to 20 mL and dialyzed against 10-15 volumes of 1× PBS using by tangential flow filtration before recovering the final product. The TFF system and hollow fiber filtration membranes were purchased from Spectrum Labs (Rancho Dominguez) and were used according to the manufacturer's guidelines. Polysulfone hollow fiber filtration membranes with a 100 kD pore size cutoff and 8 cm^2 surface area were used. For in vitro and in vivo experiments formulations were diluted to the required RNA concentration with 1×. PBS.
A total of seven experimental groups with six animals per group (42 animals) were used in this study; two vaccine doses of each RNA formulation (Groups 2-5), two groups vaccinated with a non-adjuvated (H1N1 subunit) or an adjuvated (MF59/H1N1 subunit) commercially available H1N1 influenza subunit vaccine (Groups 6 and 7) and a mock vaccinated group (Group 1). The RNA test vaccines were derived from a recombinant DNA plasmid (pDNA) carrying an alphavirus genome in which the structural genes were replaced with the HA gene from the H1N1 influenza A strain, Ca107. The RNA was then formulated in either cationic oil-in-water emulsion (CNE) or LNP for delivery to host cells via intramuscular (IM) injection. RNA concentrations for each formulation study group were 15 and 45 mcg for CNE and 5 and 15 mcg for LNP. The H1N1 subunit vaccines were used at a HA subunit protein concentration of 15 mcg. Non-vaccinated animals were mock vaccinated with a vehicle control for the RNA test vaccines. All test vaccines were administered by IM injection on Study Days (SD) 0 followed with a booster vaccination on Study Day 56 (8 weeks post 1st immunization).
Table 5 summarizes Influenza microneutralization data and table 6 the haemagultanin inhibition (HAI) titers. The LNP formulation tested generated immune responses with as little as 5 μg of self-amplifying RNA, as determined by increased HA-specific neutralization and HAI titers.

Where “and” joins values, the source holds several entries; their conditions need not be identical. Equal entries are not always repeated. Bounds are passed on as bounds.

As for `CCCCC/C=C\C/C=C\CCCCCCCCOc1ccc(OCCCCCCCC/C=C\C/C=C\CCCCC)c(COC(=O)CCCN(C)C)c1` [Example 1, 2,5-bis((9Z,12Z)-octadeca-9,12-dien-1-yloxy)benzyl 4-(dimethylamino)butanoate], in data set [1], the “Log10(IgG titer), 1 ng RNA (RSV-F), 2 weeks post 2nd immunization” value was found to be 4.43. Besides, in data set [2], the “Encapsulation efficiency (RNA %)” value is 96.6%. For the same compound, the Influenza microneutralization titer in data set [3] (5 mcg RNA, 4wp1, per animal) is 20 (2×) and 80 and 40 (2×) and 10; in data set [3] (5 mcg RNA, 4wp2, per animal), 640 (2×) and >20480 (3×) and 320; in data set [3] (5 mcg RNA, 8wp1, per animal), 20 (2×) and 40 (2×) and 10 and <10; in data set [3] (5 mcg RNA, Pre-bleed, per animal) it was under 10; in data set [3] (15 mcg RNA, 4wp1, per animal) it was 160 (2×) and 320 and 80 (2×) and 40; in data set [3] (15 mcg RNA, 4wp2, per animal) it was 640 (4×) and >20480 (2×). Moreover, the Influenza microneutralization titer is 40 (3×) and 80 (2×) and 20 in data set [3] (15 mcg RNA, 8wp1, per animal); under 10 in data set [3] (15 mcg RNA, Pre-bleed, per animal).
